Results taken from publication PMC10259803 (PLOS Pathogens, 2023).

Experiments:
D39x comC^- = assay: in vitro recombination frequency, D39x comC^-; assay type: cell-based, Streptococcus pneumoniae; details: for reduction of recombination frequency upon incubation of modified CSP with trypsin-like proteases: both PPT and HAT, compared with unmodified CSP1; for HAT concentration to reduce the recombination frequency to below 5% of 0 trypsin: CSP incubated with HAT 30 min; for HAT concentration to reduce the recombination frequency to below 5% of 0 trypsin / PPT concentration to reduce the recombination frequency to below 5% of 0 trypsin: room temperature; for PPT concentration to reduce the recombination frequency to below 5% of 0 trypsin: CSP incubated with PPT 30 min
Description: (§1) During culture incubation, porcine pancreatic trypsin (PPT; Sigma #T4799) was reconstituted in Hank’s balanced salt solution (Gibco) and incubated with either water or 4-(2-Aminoethyl) benzenesulfonyl fluoride hydrochloride (AEBSF; Cayman #14321) in a total volume of 50μL 30mM Tris, pH 8.5 and incubated for 15 minutes, room temperature. CSP1 or CSP2 was added, followed by incubation for 30 minutes, room temperature. When the culture reached OD620~0.08, 1 mL of culture was transferred to the PPT-AEBSF-CSP mixture and 2 μg of D39 Tn-seq library gDNA (D39 strains) or 2 μg of TIGR4 Tn-seq library gDNA (TIGR4 strains) was added. […] Upon addition of the culture, the final concentration of PPT ranged from 0–10 μg/mL, AEBSF was 0.1 mM, CSP was 3 μg/mL, and gDNA was 2 μg/mL. The transformation was incubated for 3 hours at 37°C, 5% CO2, followed by serial dilution and plating on two TSA blood plates and two TSA blood plates supplemented with 200 μg/mL spectinomycin. To observe low-frequency recombination events, 200 μL of the transformation was also spread plated on two TSA blood plates supplemented with 200 μg/mL spectinomycin. For transformations with HAT incubated CSP, HAT (Bio-techne R&D #2695-SE-010) was reconstituted in 25mM Tris, 150mM NaCl, pH 7.5. All incubation times and final concentrations were the same as for PPT; however, the volumes were 1/10th as that for PPT. For both PPT and HAT, the experiment was repeated at least three times.

D39x = assay: ex vivo recombination frequency with mouse lung homogenate, D39x; assay type: cell-based, Streptococcus pneumoniae; details: for ex vivo recombination frequency with homogenized lungs of mice treated in vivo: poly (I:C) 50 μL of 1 mg/mL IN daily 4 days, AEBSF 125 μg IN daily 3 days along with poly (I:C), 0 mM AEBSF ex vivo
Description: To determine the impact of proteases from the lungs of mice on recombination frequency, a similar experimental setup as the in vitro recombination frequency was performed. […] During culture incubation, the lungs of 10-week-old female Balb/cJ mice (N = 7) were harvested and homogenized in 600 μL PBS. Lung homogenate was incubated with either water or AEBSF for 30 minutes, room temperature. 60 μL of lung homogenate-AEBSF mixture was transferred to a new tube. Addition of CSP1, culture, and gDNA and transformation was performed in the same manner as the in vitro recombination frequency. The final concentration of CSP was 3 μg/mL and gDNA was 2 μg/mL. The final concentration of AEBSF was 0mM, 1 mM, or 2mM. The lung from each mouse was divided into six transformations: D39x with lungs incubated with 0mM, 1 mM, or 2mM AEBSF and D39x comC^- with lungs incubated with 0mM, 1 mM, or 2mM AEBSF. As a control, the same culture of D39x and D39x comC^- were transformed with gDNA and CSP1 incubated with AEBSF in PBS. Recombination frequency of the transformation with CSP1 incubated with 1 mM and with 2 mM AEBSF were compared to that incubated with 0 mM AEBSF using Kruskal-Wallis one-way ANOVA in Graphpad 6.
Lungs were harvested and homogenized in 600 μL PBS. The homogenates from all lungs were subjected to the ex vivo protocol described above and the recombination frequency of D39x and D39x comC^- subjected to lungs incubated with 0mM, 1 mM, or 2mM AEBSF and CSP1 was determined.

[1] = system: serine proteases in mouse lung homogenates and sera; assay: Protease levels (fluorescence of substrate BOC); assay type: biochemical; details: for Protease levels in lungs and sera of treated mice: poly (I:C) vs control mice (lungs and sera), AEBSF prior to poly (I:C) vs poly (I:C) alone (lungs)
Description: For ex vivo experiments, the protease levels were measured from the same lung homogenate used in the ex vivo recombination frequency experiment, adapting the protocol from the HAT manufacturer (Bio-techne R&D). After the lungs were incubated with either water or AEBSF, 50 μL of lung homogenate mixture was transferred to a black, 96-well plate. 50 μL of substrate t-Butyloxycarbonyl Phe-Ser-Arg 7-amino-4methyl coumarin (Bachem # I1400) was added directly to the well, incubated for 10 minutes at room temperature, and fluorescence (380 excitation; 460 emission) was detected in a Biotek Cytation 3. Protease levels of lung homogenates incubated with 1 mM and 2 mM AEBSF were compared to that incubated with 0 mM AEBSF using one-way ANOVA and correlation between protease levels and recombination frequency was compared using two-tailed spearman in Graphpad 6.
For in vivo experiments, homogenized lungs were further clarified after plating on TSA plates via centrifugation at 10,000xg, 5min. Sera was separated from whole blood via centrifugation at 10,000xg, 5 min in sera-collection tubes. The clarified homogenates and sera were transferred to a black, 96-well plate and 50 μL of substrate t-Butyloxycarbonyl Phe-Ser-Arg 7-amino-4methyl coumarin was added directly to the well and fluorescence (380 excitation; 460 emission) was detected in a Biotek Cytation 3. Protease levels of all groups were compared pairwise for each tissue using unpaired t test and correlation between protease levels and recombination frequency was compared using two-tailed spearman in Graphpad 6.

S. pneumoniae D39 = assay: in vivo recombination frequency, poly (I:C) / AEBSF treated mice; details: Balb/cJ mice; poly (I:C) 50 μL of 1 mg/mL IN daily 4 days vs vehicle; AEBSF 125 μg IN prior to poly (I:C) vs poly (I:C) without inhibitor; 20 h after challenge
porcine trypsin gold = porcine trypsin gold (Promega #V5280); details: room temperature, up to thirty minutes
porcine trypsin = biological target: T1, porcine trypsin (Sus scrofa, UniProt P00761); assay: Mass spectrometry of CSP cleavage by porcine trypsin; assay type: in vitro ADME; details: 30 min, room temperature
T1 construct: purchased Promega V5280
T1 sequence (P00761 9-231): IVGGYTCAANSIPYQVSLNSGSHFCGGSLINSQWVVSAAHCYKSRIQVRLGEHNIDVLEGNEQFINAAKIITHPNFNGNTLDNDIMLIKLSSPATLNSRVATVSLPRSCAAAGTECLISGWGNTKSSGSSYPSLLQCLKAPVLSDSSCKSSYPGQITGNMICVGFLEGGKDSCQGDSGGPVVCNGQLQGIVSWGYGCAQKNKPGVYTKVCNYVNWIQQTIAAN
Description: Fig 1 Serine proteases cleave competence-stimulating peptide of S. pneumoniae. (A) Sequence of competence-stimulating peptide 1 (CSP1) and peptide 2 (CSP2). Red arrows indicate potential cleavage sites by trypsin-like serine proteases. (B) Mass spectrometry analysis of cleaved residues of CSP1 upon incubation with no trypsin (grey) or with porcine trypsin (black) for 30 minutes. (C) Mass spectrometry analysis of cleaved residues of CSP1 upon incubation with no trypsin (grey) or with human airway trypsin (HAT) (black) for 30 minutes. (D) Mass spectrometry analysis of cleaved residues of CSP2 upon incubation with no trypsin (grey) or with porcine trypsin (black) for 30 minutes. (E) Mass spectrometry analysis of cleaved residues of CSP2 upon incubation with no trypsin (grey) or with HAT (black) for 30 minutes. (B-E) The fraction of each peptide detected by mass spectrometry was calculated by dividing the area of the cleaved peptide by the total area of all peptides. In the case of two cleavage sites on the same peptide, the fraction was equally attributed to both cleavage sites. […]
CSPs was incubated with either porcine trypsin gold (Promega #V5280) or human airway trypsin-like protease (HAT; Bio-techne R&D #2695-SE-010) for thirty minutes, room temperature. […] The eluted peptides were ionized by electrospray ionization and detected by an inline mass spectrometer (Thermo Orbitrap Fusion). […]

TIGR4 = assay: in vitro recombination frequency, TIGR4; assay type: cell-based, Streptococcus pneumoniae; details: CSP2; PPT or HAT; 0.1 mM AEBSF
Description: as §1, with “For both PPT and HAT, the experiment was repeated at least three times.” left out

DLA3 [2] = assay: Growth (OD620) of DLA3; details: DLA3 with CSP1 incubated with trypsin with and without AEBSF (S1 Fig)
Description: A similar protocol as the in vitro recombination frequency was followed. DLA3 was inoculated in C+Y at OD620~0.03. Either PPT or HAT was incubated with water or AEBSF for 15 minutes, room temperature, followed by incubation with CSP1 for thirty minutes in a total volume of 5 μL 30mM Tris, pH 8.5. When the culture reached OD620~0.08, cells were pelleted at 6,000xg, 5 min and resuspended in fresh C+Y. 100 μL of the culture was added to the Trypsin-AEBSF-CSP mixture, followed by transfer to a white-walled, clear-bottom 96-well plate and addition of 5 μL of 10 mg/mL luciferin (Sigma #L6882). Luminescence and OD620 measurements were taken every 30 minutes in a Biotek Cytation 3. Increasing concentrations of protease within each group (0 mM AEBSF or 0.1 mM AEBSF) were compared using two-way ANOVA in Graphpad 6.
Absorbance at OD620 of DLA3 grown in the presence of CSP1 incubated with increasing concentrations of trypsin with and without inhibitor AEBSF. Incubation of CSP1 with PPT (A) without AEBSF or (B) with AEBSF. Incubation of CSP1 with HAT (C) without AEBSF or (D) with AEBSF. Experiment was repeated in triplicate. The mean value of OD620 of each 30-minute timepoint is reported; error bars are SEM.

DLA3 [3] = assay: Luminescence assay, DLA3 (PssbB-luc competence reporter); details: CSP1; 0.1 mM AEBSF
Description: DLA3 was inoculated in C+Y at OD620~0.03. Either PPT or HAT was incubated with water or AEBSF for 15 minutes, room temperature, followed by incubation with CSP1 for thirty minutes in a total volume of 5 μL 30mM Tris, pH 8.5. When the culture reached OD620~0.08, cells were pelleted at 6,000xg, 5 min and resuspended in fresh C+Y. 100 μL of the culture was added to the Trypsin-AEBSF-CSP mixture, followed by transfer to a white-walled, clear-bottom 96-well plate and addition of 5 μL of 10 mg/mL luciferin (Sigma #L6882). Luminescence and OD620 measurements were taken every 30 minutes in a Biotek Cytation 3.

Which “reduction of recombination frequency upon incubation of modified CSP with trypsin-like proteases” value (D39x comC^-) does the source give for `CC[C@H](C)[C@H](NC(=O)[C@H](Cc1ccccc1)NC(=O)[C@H](CC(=O)O)NC(=O)[C@H](CCCNC(=N)N)NC(=O)[C@H](Cc1ccccc1)NC(=O)[C@H](Cc1ccccc1)NC(=O)[C@H](Cc1c[nH]cn1)NC(=O)[C@H](CO)NC(=O)[C@H](CC(C)C)NC(=O)[C@H](CCCNC(=N)N)NC(=O)[C@H](CCSC)NC(=O)[C@@H](N)CCC(=O)O)C(=O)N[C@@H](CC(C)C)C(=O)N[C@@H](CCC(N)=O)C(=O)N[C@@H](CCCNC(=N)N)C(=O)N[C@@H](CCCCN)C(=O)N[C@@H](CCCCN)C(=O)O` [K6H] here?
The value was “similarly to that of unmodified CSP1”.

Which results are given for `CC[C@H](C)[C@H](NC(=O)[C@H](Cc1ccccc1)NC(=O)[C@H](CC(=O)O)NC(=O)[C@H](Cc1c[nH]cn1)NC(=O)[C@H](Cc1ccccc1)NC(=O)[C@H](Cc1ccccc1)NC(=O)[C@H](CCCCN)NC(=O)[C@H](CO)NC(=O)[C@H](CC(C)C)NC(=O)[C@H](CCCNC(=N)N)NC(=O)[C@H](CCSC)NC(=O)[C@@H](N)CCC(=O)O)C(=O)N[C@@H](CC(C)C)C(=O)N[C@@H](CCC(N)=O)C(=O)N[C@@H](CCCNC(=N)N)C(=O)N[C@@H](CCCCN)C(=O)N[C@@H](CCCCN)C(=O)O` [R9H]?
HAT concentration to reduce recombination frequency below 5% of 0 trypsin: times less compared to unmodified CSP1 (D39x comC^-; CSP incubated with HAT): 2 times; HAT concentration to reduce the recombination frequency to below 5% of 0 trypsin (D39x comC^-): 0.5 µg/mL; PPT concentration to reduce recombination frequency below 5% of 0 trypsin: times less compared to unmodified CSP1 (D39x comC^-; CSP incubated with PPT): 5 times; PPT concentration to reduce the recombination frequency to below 5% of 0 trypsin (D39x comC^-): 0.01 µg/mL; reduction of recombination frequency upon incubation of modified CSP with trypsin-like proteases (D39x comC^-): to a greater extent than the unmodified CSP1

Which results are given for poly (I:C)?
ex vivo recombination frequency with homogenized lungs of mice treated in vivo (D39x): reduced; Protease levels in lungs and sera of treated mice ([1]; BOC substrate fluorescence): higher; protease levels in inflamed lungs, equated to recombinant HAT ([1]; recombinant HAT standard, 35000 RFU = 0.05 μg/mL, non-inflamed lungs 0.079 (±0.010)): 0.168 (±0.012) μg/mL; in vivo recombination frequency of D39 in lungs and blood (S. pneumoniae D39): significant reduction

Which cleaved bond (porcine trypsin gold) does the source give for EMRISRIILDFLFLRKK here?
The cleaved bond was “R6-I7 and E-M and D-F”.

`CC[C@H](C)[C@H](NC(=O)[C@H](Cc1ccccc1)NC(=O)[C@H](CC(=O)O)NC(=O)[C@H](CCCNC(=N)N)NC(=O)[C@H](Cc1ccccc1)NC(=O)[C@H](Cc1ccccc1)NC(=O)[C@H](CCCCN)NC(=O)[C@H](CO)NC(=O)[C@H](CC(C)C)NC(=O)[C@H](CCCNC(=N)N)NC(=O)[C@H](CCSC)NC(=O)[C@@H](N)CCC(=O)O)C(=O)N[C@@H](CC(C)C)C(=O)N[C@@H](CCC(N)=O)C(=O)N[C@@H](CCCNC(=N)N)C(=O)N[C@@H](CCCCN)C(=O)N[C@@H](CCCCN)C(=O)O` [CSP1] was tested. Which “preferential cleavage site, porcine trypsin” value (porcine trypsin) did it give?
The value was “R15 followed by K6 and R9”.

What about the “HAT concentration to reduce the recombination frequency to below 5% of 0 trypsin” value (D39x comC^-) of the same molecule?
The value was 1 µg/mL.

And the “PPT concentration to reduce the recombination frequency to below 5% of 0 trypsin” value (D39x comC^-)?
The value was 0.05 µg/mL.

And the “recombination frequency after incubation of CSP with mouse lung homogenate” value (D39x; mouse lung homogenate, ex vivo)?
Its value is “reduced”.

With `CC[C@H](C)[C@H](NC(=O)[C@H](Cc1ccccc1)NC(=O)[C@H](CC(=O)O)NC(=O)[C@H](CCCNC(=N)N)NC(=O)[C@H](Cc1ccccc1)NC(=O)[C@H](Cc1ccccc1)NC(=O)[C@H](CCCCN)NC(=O)[C@H](CO)NC(=O)[C@H](CC(C)C)NC(=O)[C@H](CCCNC(=N)N)NC(=O)[C@H](CCSC)NC(=O)[C@@H](N)CCC(=O)O)C(=O)N[C@@H](CC(C)C)C(=O)N[C@@H](CCC(N)=O)C(=O)N[C@@H](Cc1c[nH]cn1)C(=O)N[C@@H](CCCCN)C(=O)N[C@@H](CCCCN)C(=O)O` [R15H] as the molecule, how does the “reduction of recombination frequency upon incubation of modified CSP with trypsin-like proteases” value (D39x comC^-) read?
Its value is “similarly to that of unmodified CSP1”.

Which “recombination frequency with CSP1 incubated with PPT or HAT pre-incubated with AEBSF” value (D39x comC^-; 0.1 mM AEBSF, protease pre-incubated 15 min) does the source give for `Cl.NCCc1ccc(S(=O)(=O)F)cc1` [AEBSF, 4-(2-Aminoethyl) benzenesulfonyl fluoride hydrochloride] here?
The value was “at a similar level as that of the no trypsin control”.

And the “protease-caused reduction of recombination frequency when proteases were incubated with AEBSF” value (TIGR4)?
Its value is “abrogated”.

What about the “recombination frequency with CSP1 incubated with AEBSF alone” value (D39x; CSP1 in PBS with increasing AEBSF, no lung homogenate, D39x and D39x comC^- (S3 Fig)) of the same molecule?
Its value is “did not increase”.

And the “recombination frequency with CSP1 incubated with lung homogenates treated with AEBSF” value (D39x; mouse lung homogenate incubated 30 min with 1 or 2 mM AEBSF vs 0 mM)?
Its value is “increased”.

And the “ex vivo recombination frequency with homogenized lungs of mice treated in vivo” value (D39x)?
Its value is “restored”.

What about the “levels of serine proteases in the lung homogenates” value ([1]; lung homogenate incubated with 1 or 2 mM AEBSF, BOC substrate fluorescence) of the same molecule?
Its value is “decreased”.

What about the “Protease levels in lungs and sera of treated mice” value ([1]; BOC substrate fluorescence) of the same molecule?
Its value is “reduced”.

What about the “Growth of S. pneumoniae (OD620)” value (DLA3 [2]) of the same molecule?
Its value is “not reduced”.

What about the “PPT-caused reduction of DLA3 luminescence when PPT was pre-incubated with AEBSF” value (DLA3 [3]) of the same molecule?
The value was “abrogated”.

What about the “in vivo recombination frequency of D39 in lungs and blood” value (S. pneumoniae D39) of the same molecule?
Its value is “higher frequency”.
